Results taken from article PMC11189555, “Aryl amino acetamides prevent Plasmodium falciparum ring development via targeting the lipid-transfer protein PfSTART1” (Nature Communications, 2024).
“And” between values parts separate entries of the source, which are not always exact repeats. Equal entries are not always repeated. Where two headings read alike, the source gives them in different places.

System: CR-N330K parasites
Test: Growth inhibition assay (72 h, LDH activity)
Format: cell-based, Plasmodium falciparum
Settings: for inhibition at up to 5 µM: dilution point 5 of 10, read-out: Growth inhibition assay, NORMALISED
Procedure: Parasite growth assays with inhibitory compounds were performed as per[11] and are fully described in the Supplementary Information.
Molecular biology and transfection of P. falciparum: CRISPR method.
The full 5’ homology region of pfstart1 (either WT, N309K or N330K) was amplified from pPfSTART1-HA-2A-Neo-glmS with the same 5’ BglII primer and a new 3’ primer that replaced with PstI with SpeI and introduced a stop codon. The PCR product was then digested with BglII and SpeI and inserted into similarly digested p1.2 parasite vector2. The p1.2 vector had previously been inserted with a homology region amplified from the 3’ end of the pfstart1 gene (3’HB) to form a second homology block for double recombination. The primers used to amplify 3’HB are listed primers listed in […]
60 μg of p1.2-PfSTART1(WT/N309K/N330K) plasmid was linearised with KasI, precipitated in 3 M sodium acetate and ethanol (70% final concentration) overnight at -20°C. The DNA pellet was washed in cold 70% ethanol and resuspended in cytomix 3.
50 μ M of crRNA ( Table S 2) and 50 μM of tracRNA (Integrated DNA Technologies) were allowed to form a duplex (5 min at 95°C), and Cas9 enzyme (Integrated DNA Technologies) was added, and incubated for 20 min at room temperature 4. This crRNA -tracRNA -Cas9 mix was added to each DNA preparation and transfected to 3D7 ring parasites using the Bio -Rad Gene Pulser at 310 V and 950 μF.
Parasites containing the transfected DNA were selected using 2.5 nM WR99210 (Jacobus). Parasites lines were cloned using limiting dilution. Correct integration was tested by PCR (using primer START_5’UTR.F and START_Int.R1 , Table S 2), and sequencing was done using the primers START_3F and START_Int.R2 (Table S 2).
Growth inhibition assays. Synchronised ring-stage parasites (0.3-0.6% parasitemia, 2% haematocrit) were grown for 72 h in a serial-dilution of the compound under […]
and compound 4. Note that M-833 was first purchased from MolPort (MolPort -002-267-916) then made in-house at WEHI: the differences observed in EC50s across experiments are attributed to the different batches of M -833. For some experiments, 0, 0.25 or 2.5 mM of glucosamine (GlcN) was also added. Experiments were set up in technical duplicates or triplicates. Following a freeze -thaw cycle, lactate dehydrogenase (LDH) activity was assessed as an indicator of parasite growt h 5. 30 μL of parasite culture was incubated for 30 min in the dark with 75 μL Malstat mixture (0.1 M Tris pH 9.0, 20 g/L lactic acid, pH 7.5, 0.2% Triton-X100, 0.5 g/L acetylpyridine adenine dinucleotide (APAD, Sigma), 200 μg/mL nitroblue tetrazolium (NBT; Sigma), 1 μg/mL phenozine ethosulfate (PES; Sigma)). Absorbance was then measured at 650 nm, transformed using the formula below, plotted against the logarithm of the concentrations, and a non-linear regression (log(inhibitor) vs. response, variable slope) was calculated using GraphPad Prism to assess the half-inhibitory […]
Growth inhibition % = (1 − average(sample)− average(uRBC)) ∗ 100 […]
The DMSO samples were also used to assess growth of parasite in the presence of 0.25 and 2.5 mM GlcN (normalised by DMSO in 0 mM GlcN).
Egress, invasion & recovery assay. To measure egress, invasion and follow up recovery in the presence of different compounds, we adapted the method developed in6, using Hyp1-Nluc parasites7. These parasites episomally express the exported PEXEL protein Hyp1 (PF3D7_0113300) tagged with a NanoLuc luciferase (NLuc) and were selected with 2.5 nM WR99210 (Jacobus). Highly synchronised schizonts were obtained using ML10 (LifeArc) and sorbitol synchronisation, and Percoll-purified (the culture was gently layered over 67% Percoll (Cytiva) in RPMI, and centrifuged for 15 min at 1500 g and the schizont layer was collected and washed). In a 96-well plate, […]

CC(C)(Nc1ccc(Cl)c(S(=O)(=O)N2CCOCC2)c1)C(=O)Nc1ccc(F)c(Cl)c1 [W-991]
NORMALISED (growth inhibition, LDH absorbance) (2.5 mM GlcN, dilution point 9 of 10 from starting concentration 5 uM): 10.3592 and 12.8289 | fold less susceptible than the 3D7 and CR-WT controls (Fig 4C): around 600 fold | fold sensitised on PfSTART1 knock-down with GlcN (Fig 4C): 7.3 fold | EC50 (Fig 4C, 0 mM GlcN, n = 3, read-out: EC50 W-991 (95% confidence interval)): < 700 nM | inhibition at 5 µM (Plasmodium falciparum, 0 mM GlcN, dilution point 1 of 10, starting concentration 5 uM, read-out: NORMALISED (growth inhibition, LDH absorbance)): 84.5% | inhibition (Plasmodium falciparum, 0 mM GlcN, starting concentration 5 uM, dilution point 1 of 10, read-out: Growth inhibition assay, NORMALISED): 90.1% | inhibition (Plasmodium falciparum, 0 mM GlcN, starting concentration 5 uM, dilution point 3 of 10, read-out: Growth inhibition assay, NORMALISED): 50.4% | inhibition (Plasmodium falciparum, 0 mM GlcN, starting concentration 5 uM, dilution point 4 of 10, read-out: Growth inhibition assay, NORMALISED): 20.2% | inhibition at up to 5 µM (Plasmodium falciparum, 0 mM GlcN, starting concentration 5 uM): 14.5% | inhibition (Plasmodium falciparum, 0 mM GlcN, starting concentration 5 uM, dilution point 6 of 10, read-out: Growth inhibition assay, NORMALISED): 9.02% | inhibition (Plasmodium falciparum, 0 mM GlcN, starting concentration 5 uM, dilution point 7 of 10, read-out: Growth inhibition assay, NORMALISED): 9.74% | inhibition (Plasmodium falciparum, 0 mM GlcN, starting concentration 5 uM, dilution point 8 of 10, read-out: Growth inhibition assay, NORMALISED): 9.24% | inhibition (Plasmodium falciparum, 0 mM GlcN, starting concentration 5 uM, dilution point 9 of 10, read-out: Growth inhibition assay, NORMALISED): 12.9% | inhibition (Plasmodium falciparum, 0 mM GlcN, starting concentration 5 uM, dilution point 10 of 10, read-out: Growth inhibition assay, NORMALISED): 5.95% | inhibition at 5 µM (Plasmodium falciparum, 0.25 mM GlcN, dilution point 1 of 10, starting concentration 5 uM, read-out: NORMALISED (growth inhibition, LDH absorbance)): 86.4% | inhibition at 5 µM (Plasmodium falciparum, 0.25 mM GlcN, starting concentration 5 uM, dilution point 1 of 10, read-out: Growth inhibition assay, NORMALISED): 87.6% | inhibition at 5 µM (Plasmodium falciparum, 0.25 mM GlcN, starting concentration 5 uM, dilution point 2 of 10, read-out: Growth inhibition assay, NORMALISED): 84.3% | inhibition at 5 µM (Plasmodium falciparum, 0.25 mM GlcN, starting concentration 5 uM, dilution point 3 of 10, read-out: Growth inhibition assay, NORMALISED): 66.9% | inhibition at 5 µM (Plasmodium falciparum, 0.25 mM GlcN, starting concentration 5 uM, dilution point 4 of 10, read-out: Growth inhibition assay, NORMALISED): 35.9% | inhibition at 5 µM (Plasmodium falciparum, 0.25 mM GlcN, starting concentration 5 uM, dilution point 6 of 10, read-out: Growth inhibition assay, NORMALISED): 2.77% | inhibition at 5 µM (Plasmodium falciparum, 0.25 mM GlcN, starting concentration 5 uM, dilution point 7 of 10, read-out: Growth inhibition assay, NORMALISED): 9.45% | inhibition at 5 µM (Plasmodium falciparum, 0.25 mM GlcN, starting concentration 5 uM, dilution point 8 of 10, read-out: Growth inhibition assay, NORMALISED): 11.2% | inhibition at 5 µM (Plasmodium falciparum, 0.25 mM GlcN, starting concentration 5 uM, dilution point 9 of 10, read-out: Growth inhibition assay, NORMALISED): 16.2% | inhibition at 5 µM (Plasmodium falciparum, 0.25 mM GlcN, starting concentration 5 uM, dilution point 10 of 10, read-out: Growth inhibition assay, NORMALISED): 6.13% | inhibition (Plasmodium falciparum, 2.5 mM GlcN, starting concentration 5 uM, dilution point 1 of 10, read-out: Growth inhibition assay, NORMALISED): 33.9% | inhibition (Plasmodium falciparum, 2.5 mM GlcN, starting concentration 5 uM, dilution point 2 of 10, read-out: Growth inhibition assay, NORMALISED): 33.5% | inhibition (Plasmodium falciparum, 2.5 mM GlcN, starting concentration 5 uM, dilution point 3 of 10, read-out: Growth inhibition assay, NORMALISED): 23.8% | inhibition (Plasmodium falciparum, 2.5 mM GlcN, starting concentration 5 uM, dilution point 4 of 10, read-out: Growth inhibition assay, NORMALISED): 10.8% | inhibition at up to 5 µM (Plasmodium falciparum, 2.5 mM GlcN, starting concentration 5 uM): -13.2% | inhibition (Plasmodium falciparum, 2.5 mM GlcN, starting concentration 5 uM, dilution point 6 of 10, read-out: Growth inhibition assay, NORMALISED): -23.5% | inhibition (Plasmodium falciparum, 2.5 mM GlcN, starting concentration 5 uM, dilution point 7 of 10, read-out: Growth inhibition assay, NORMALISED): -34.6% | inhibition (Plasmodium falciparum, 2.5 mM GlcN, starting concentration 5 uM, dilution point 8 of 10, read-out: Growth inhibition assay, NORMALISED): -22.6% | inhibition (Plasmodium falciparum, 2.5 mM GlcN, starting concentration 5 uM, dilution point 9 of 10, read-out: Growth inhibition assay, NORMALISED): -27.3% | inhibition (Plasmodium falciparum, 2.5 mM GlcN, starting concentration 5 uM, dilution point 10 of 10, read-out: Growth inhibition assay, NORMALISED): -18.7% | EC50 (Plasmodium falciparum, read-out: EC50 W-991 (95% confidence interval), Fig 4C, 0 mM GlcN, n = 3): 623 nM | EC50 (Plasmodium falciparum, read-out: EC50 W-991 (95% confidence interval), Fig 4C, 0.25 mM GlcN, n = 3): 336 nM | EC50 (Plasmodium falciparum, read-out: EC50 W-991 (95% confidence interval), Fig 4C, 2.5 mM GlcN, n = 3): 85.3 nM | EC50 (read-out: EC50 W-991 (95% confidence interval), Fig 4C, 0 mM GlcN, n = 3): 623 nM
